Measured values published in patent US20200325177A1, “METHODS OF MAKING STREPTOGRAMIN COMPOSITIONS AND THE USE THEREOF” (THE REGENTS OF THE UNIVERSITY OF CALIFORNIA, priority 2017, published 2020).
Values after ≈ are worked out from the molar mass of the structure shown. Where two headings read alike, the source gives them in different places.

Columns and labels:
H. influenzae ATCC 49247 = assay: MIC, Gram-negative bacteria: H. influenzae ATCC 49247; format: cell-based; conditions: Haemophilus influenzae, ATCC49247, read-out: Minimal Inhibitory Concentration (MIC) H. influenzae ATCC 49247
[1] = tested on: large subunit of the E. coli ribosome; assay: cryo-EM structure bound to ribosome; format: binding; conditions: 2.8 Angstrom resolution cryo-EM; isoquinoline sidechain reaches into the P-site
Description: FIGS. 7A-7B. […] FIG. 7B depicts the structure of SAO110224.

E. faecium VRE; vanA = assay: MIC, Gram-positive bacteria: E. faecium VRE; vanA; format: cell-based; conditions: Enterococcus faecium, column 3, read-out: Minimal Inhibitory Concentration (MIC) E. faecium VRE
[2] = tested on: S. aureus Vat A streptogramin; assay: MIC, Gram-positive bacteria: S. aureus Vat A streptogramin; format: cell-based; conditions: Staphylococcus aureus; Gram-positive; column 5; read-out: Minimal Inhibitory Concentration (MIC) S. aureus Vat A streptogramin
[3] = tested on: S. aureus Linezolid-resistant; cfr; assay: MIC, Gram-positive bacteria: S. aureus Linezolid-resistant; cfr; format: cell-based; conditions: Staphylococcus aureus, column 9, read-out: Minimal Inhibitory Concentration (MIC) S. aureus Linezolid-resistant
E. faecium ATCC 35667 = assay: MIC, Gram-positive bacteria: E. faecium ATCC 35667; format: cell-based; conditions: Enterococcus faecium, ATCC35667, column 2, read-out: Minimal Inhibitory Concentration (MIC) E. faecium ATCC 35667
[4] = tested on: P. aeruginosa MDR clinical isolate; assay: MIC, Gram-negative bacteria: P. aeruginosa MDR clinical isolate; format: cell-based; conditions: Pseudomonas aeruginosa, read-out: Minimal Inhibitory Concentration (MIC) P. aeruginosa MDR clinical isolate
S. pneumoniae = assay: MIC, Gram-positive bacteria: S. pneumoniae; format: cell-based; conditions: Streptococcus pneumoniae, column 10, read-out: Minimal Inhibitory Concentration (MIC) S. pneumoniae
S. aureus = assay: MIC, Gram-positive bacteria: S. aureus (strains not named); format: cell-based; conditions: Staphylococcus aureus, read-out: Minimal Inhibitory Concentration (MIC) S. aureus
Gram-Negative Organisms = assay: microbe, parasite or virus in culture; format: cell-based
P. aeruginosa ATCC 27853 = assay: MIC, Gram-negative bacteria: P. aeruginosa ATCC 27853; format: cell-based; conditions: Pseudomonas aeruginosa, ATCC27853, read-out: Minimal Inhibitory Concentration (MIC) P. aeruginosa ATCC 27853
[5] = tested on: K. pneumoniae multidrug-resistant; assay: MIC, Gram-negative bacteria: K. pneumoniae multidrug-resistant; format: cell-based; conditions: Klebsiella pneumoniae, read-out: Minimal Inhibitory Concentration (MIC) K. pneumoniae multidrug-resistant
E. faecalis = assay: MIC, Gram-positive bacteria: E. faecalis; format: cell-based; conditions: Enterococcus faecalis, column 1, read-out: Minimal Inhibitory Concentration (MIC) E. faecalis
[6] = first unnamed S. aureus column (c4)
[7] = fourth unnamed S. aureus column (c8)
[8] = second unnamed S. aureus column (c6)
[9] = third unnamed S. aureus column (c7)
[10] = Acinetobacter baumannii, ATCC19606, read-out: Minimal Inhibitory Concentration (MIC), A. baumannii ATCC 19606
[11] = Escherichia coli, ATCC25922, read-out: Minimal Inhibitory Concentration (MIC), E. coli ATCC 25922
[12] = Escherichia coli, read-out: Minimal Inhibitory Concentration (MIC), E. coli BAS2006, OMP C, OMP F
[13] = Escherichia coli, read-out: Minimal Inhibitory Concentration (MIC), E. coli olC efflux defective
[14] = Escherichia coli, read-out: Minimal Inhibitory Concentration (MIC), E. coli permeability mutant BAS1314, IMP4213ZAB::TN10
[15] = Escherichia coli, read-out: Minimal Inhibitory Concentration (MIC), E. coli ΔompC768, KanR insert
[16] = Klebsiella pneumoniae, ATCC43816, read-out: Minimal Inhibitory Concentration (MIC), K. pneumoniae ATCC 43816

| SMILES | MIC (H. influenzae ATCC 49247) | MIC (E. faecium VRE; vanA) | MIC [2] | MIC [3] | MIC (E. faecium ATCC 35667) | MIC [4] | MIC (S. pneumoniae) | MIC (S. aureus; [6]) | MIC (S. aureus; [7]) | MIC (S. aureus; [8]) | MIC (S. aureus; [9]) | MIC (Gram-Negative Organisms; [10]) | MIC (Gram-Negative Organisms; [11]) | MIC (Gram-Negative Organisms; [12]) | MIC (Gram-Negative Organisms; [13]) | MIC (Gram-Negative Organisms; [14]) | MIC (Gram-Negative Organisms; [15]) | MIC (Gram-Negative Organisms; [16]) | MIC (P. aeruginosa ATCC 27853) | MIC [5] | further results |
| --- | --- | --- | --- | --- | --- | --- | --- | --- | --- | --- | --- | --- | --- | --- | --- | --- | --- | --- | --- | --- | --- |
| CC1=C\[C@@H](O)CC(=O)Cc2nc(co2)C(=O)N2CCC[C@@H]2C(=O)O[C@H]([C@H](C)COC(=O)Nc2cc3ccccc3cn2)[C@H](C)/C=C/C(=O)NC\C=C\1 [SA0110224] | 2 µg/mL (≈ 2.8 µM) | 8 µg/mL (≈ 11.2 µM) | 16 µg/mL (≈ 22.4 µM) | > 64 µg/mL | 4 µg/mL (≈ 5.6 µM) | > 64 µg/mL | 16 µg/mL (≈ 22.4 µM) | 4 µg/mL (≈ 5.6 µM) | 4 µg/mL (≈ 5.6 µM) | 4 µg/mL (≈ 5.6 µM) | 8 µg/mL (≈ 11.2 µM) | > 64 µg/mL | > 64 µg/mL | 8 µg/mL (≈ 11.2 µM) | 1 µg/mL (≈ 1.4 µM) | 1 µg/mL (≈ 1.4 µM) | > 64 µg/mL | > 64 µg/mL | > 64 µg/mL | > 64 µg/mL | binding to ribosome seen in cryo-EM structure [1]: bound to large subunit of the E. coli ribosome; MIC (E. faecalis): > 64 µg/mL |
| CC1=C\[C@@H](O)CC(=O)Cc2nc(co2)C(=O)N2CCC[C@@H]2C(=O)O[C@H]([C@H](C)CF)[C@H](C)/C=C/C(=O)NC\C=C\1 [SA0110273] | 8 µg/mL (≈ 14.7 µM) | 64 µg/mL (≈ 117 µM) | > 64 µg/mL | > 64 µg/mL | 16 µg/mL (≈ 29.3 µM) | > 64 µg/mL | 16 µg/mL (≈ 29.3 µM) | 64 µg/mL (≈ 117 µM) | 32 µg/mL (≈ 58.7 µM) | 64 µg/mL (≈ 117 µM) | 64 µg/mL (≈ 117 µM) | > 64 µg/mL | > 64 µg/mL | 16 µg/mL (≈ 29.3 µM) | 4 µg/mL (≈ 7.33 µM) | 8 µg/mL (≈ 14.7 µM) | > 64 µg/mL | > 64 µg/mL | > 64 µg/mL | > 64 µg/mL | MIC (E. faecalis): > 64 µg/mL |
| CC1=C\[C@@H](O)CC(=O)Cc2nc(co2)C(=O)N2CCC[C@@H]2C(=O)O[C@H]([C@H](C)COC(=O)Nc2ccc(Br)nc2)[C@H](C)/C=C/C(=O)NC\C=C\1 [SA0110209] | 8 µg/mL (≈ 10.8 µM) | > 64 µg/mL | > 64 µg/mL | > 64 µg/mL | 16 µg/mL (≈ 21.5 µM) | > 64 µg/mL | 16 µg/mL (≈ 21.5 µM) | 16 µg/mL (≈ 21.5 µM) | 16 µg/mL (≈ 21.5 µM) | 16 µg/mL (≈ 21.5 µM) | > 64 µg/mL | > 64 µg/mL | > 64 µg/mL | > 64 µg/mL | 2 µg/mL (≈ 2.69 µM) | 2 µg/mL (≈ 2.69 µM) | > 64 µg/mL | > 64 µg/mL | > 64 µg/mL | > 64 µg/mL | MIC (E. faecalis): > 64 µg/mL |
| CC1=C\[C@@H](O)CC(=O)Cc2nc(co2)C(=O)N2CCC[C@@H]2C(=O)O[C@H]([C@H](C)COC(=O)Nc2coc(C)n2)[C@H](C)/C=C/C(=O)NC\C=C\1 [SA0110210] | 16 µg/mL (≈ 24 µM) | 64 µg/mL (≈ 95.8 µM) | > 64 µg/mL | > 64 µg/mL | 64 µg/mL (≈ 95.8 µM) | > 64 µg/mL | 64 µg/mL (≈ 95.8 µM) | > 64 µg/mL | > 64 µg/mL | > 64 µg/mL | > 64 µg/mL | > 64 µg/mL | > 64 µg/mL | > 64 µg/mL | 8 µg/mL (≈ 12 µM) | 8 µg/mL (≈ 12 µM) | > 64 µg/mL | > 64 µg/mL | > 64 µg/mL | > 64 µg/mL | MIC (E. faecalis): > 64 µg/mL |
| CC1=C\[C@@H](O)CC(=O)Cc2nc(co2)C(=O)N2CCC[C@@H]2C(=O)O[C@H]([C@H](C)COC(=O)Nc2ccc3ccccc3n2)[C@H](C)/C=C/C(=O)NC\C=C\1 [SA0110223] | 8 µg/mL (≈ 11.2 µM) | 16 µg/mL (≈ 22.4 µM) | 32 µg/mL (≈ 44.8 µM) | > 64 µg/mL | 4 µg/mL (≈ 5.6 µM) | > 64 µg/mL | 32 µg/mL (≈ 44.8 µM) | 8 µg/mL (≈ 11.2 µM) | 4 µg/mL (≈ 5.6 µM) | 8 µg/mL (≈ 11.2 µM) | 16 µg/mL (≈ 22.4 µM) | > 64 µg/mL | > 64 µg/mL | 16 µg/mL (≈ 22.4 µM) | 2 µg/mL (≈ 2.8 µM) | 2 µg/mL (≈ 2.8 µM) | > 64 µg/mL | > 64 µg/mL | > 64 µg/mL | > 64 µg/mL | MIC (E. faecalis): > 64 µg/mL |
